Where two headings read alike, the source gives them in different places.
Test system: HCV 1b-377-neo replicon cells
Assay: HCV replicon assay, HCV 1b-377-neo replicon cells (1b FRET)
Format: cell-based, Hepatitis C virus genotype 1b
Settings: HCV 1b-377-neo replicon cells, HCV 1b genotype; for EC50: read-out: EC50 range against HCV 1b (Table 2, Range)
Outline: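 Compounds were tested in genotype 1b subgenomic replicon cells carrying a neomycin marker, alongside a matched replicon line with an NS5A Y2065H substitution that confers resistance to a reference NS5A inhibitor.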

SMILES | EC50 (Hepatitis C virus) | further results
COC(=O)N[C@@H](C)C(=O)N1CCC[C@H]1c1ncc(-c2ccc(-c3ccc(-c4cnc([C@@H]5CCCN5C(=O)[C@@H](c5ccccc5)N(C)C)[nH]4)cc3)cc2)[nH]1 [Example 92, methyl ((1S)-2-((2S)-2-(5-(4′-(2-((2S)-1-((2R)-2-(dimethylamino)-2-phenylacetyl)-2-pyrrolidinyl)-1H-imidazol-5-yl)-4-biphenylyl)-1H-imidazol-2-yl)-1-pyrrolidinyl)-1-methyl-2-oxoethyl)carbamate] | 0.001 to 0.999 nM | –
CN(C)[C@@H](C(=O)N1CCC[C@H]1c1ncc(-c2ccc(-c3ccc(-c4cnc([C@@H]5CCCN5C(=O)N5CCOCC5)[nH]4)cc3)cc2)[nH]1)c1ccccc1 [Example 93, (1R)-N,N-dimethyl-2-((2S)-2-(5-(4′-(2-((2S)-1-(4-morpholinylcarbonyl)-2-pyrrolidinyl)-1H-imidazol-5-yl)-4-biphenylyl)-1H-imidazol-2-yl)-1-pyrrolidinyl)-2-oxo-1-phenylethanamine] | 0.001 to 0.999 nM | –
CN(C)[C@@H](C(=O)N1CCC[C@H]1c1ncc(-c2ccc(-c3ccc(-c4cnc([C@@H]5CCCN5C(=O)N5CCCC5)[nH]4)cc3)cc2)[nH]1)c1ccccc1 [Example 94, (1R)-N,N-dimethyl-2-oxo-1-phenyl-2-((2S)-2-(5-(4′-(2-((2S)-1-(1-pyrrolidinylcarbonyl)-2-pyrrolidinyl)-1H-imidazol-5-yl)-4-biphenylyl)-1H-imidazol-2-yl)-1-pyrrolidinyl)ethanamine] | 0.001 to 0.999 nM | –
CN(C)[C@@H](C(=O)N1CCC[C@H]1c1ncc(-c2ccc(-c3ccc(-c4cnc([C@@H]5CCCN5C(=O)[C@@](C)(O)c5ccccc5F)[nH]4)cc3)cc2)[nH]1)c1ccccc1 [Example 94-1, (2S)-1-((2S)-2-(5-(4′-(2-((2S)-1-((2R)-2-(dimethylamino)-2-phenylacetyl)-2-pyrrolidinyl)-1H-imidazol-5-yl)-4-biphenylyl)-1H-imidazol-2-yl)-1-pyrrolidinyl)-2-(2-fluorophenyl)-1-oxo-2-propanol] | 0.001 to 0.999 nM | –
CN(C)[C@@H](C(=O)N1CCC[C@H]1c1ncc(-c2ccc(-c3ccc(-c4cnc([C@@H]5CCCN5C(=O)[C@H]5CCC(=O)N5)[nH]4)cc3)cc2)[nH]1)c1ccccc1 [Example 94-2, (5R)-5-(((2S)-2-(5-(4′-(2-((2S)-1-((2R)-2-(dimethylamino)-2-phenylacetyl)-2-pyrrolidinyl)-1H-imidazol-5-yl)-4-biphenylyl)-1H-imidazol-2-yl)-1-pyrrolidinyl)carbonyl)-2-pyrrolidinone] | 1 to 99 nM | –
CN(C)[C@@H](C(=O)N1CCC[C@H]1c1ncc(-c2ccc(-c3ccc(-c4cnc([C@@H]5CCCN5C(=O)[C@@H](c5ccccc5)N5CCC(C)(O)CC5)[nH]4)cc3)cc2)[nH]1)c1ccccc1 [Example 94-3, 1-((1R)-2-((2S)-2-(5-(4′-(2-((2S)-1-((2R)-2-(dimethylamino)-2-phenylacetyl)-2-pyrrolidinyl)-1H-imidazol-5-yl)-4-biphenylyl)-1H-imidazol-2-yl)-1-pyrrolidinyl)-2-oxo-1-phenylethyl)-4-methyl-4-piperidinol] | 0.001 to 0.999 nM | –
CN(C)[C@@H](C(=O)N1CCC[C@H]1c1ncc(-c2ccc(-c3ccc(-c4cnc([C@@H]5CCCN5C(=O)CNC(=O)c5ccccc5)[nH]4)cc3)cc2)[nH]1)c1ccccc1 [Example 94-6, N-(2-((2S)-2-(5-(4′-(2-((2S)-1-((2R)-2-(dimethylamino)-2-phenylacetyl)-2-pyrrolidinyl)-1H-imidazol-5-yl)-4-biphenylyl)-1H-imidazol-2-yl)-1-pyrrolidinyl)-2-oxoethyl)benzamide] | – | EC50 range against HCV 1b (Table 2, Range): C-D
CN(C)[C@@H](C(=O)N1CCC[C@H]1c1ncc(-c2ccc(-c3ccc(-c4cnc([C@@H]5CCCN5C(=O)c5ccc(N6CCOCC6)cc5)[nH]4)cc3)cc2)[nH]1)c1ccccc1 [Example 94-9, (1R)-N,N-dimethyl-2-((2S)-2-(5-(4′-(2-((2S)-1-(4-(4-morpholinyl)benzoyl)-2-pyrrolidinyl)-1H-imidazol-5-yl)-4-biphenylyl)-1H-imidazol-2-yl)-1-pyrrolidinyl)-2-oxo-1-phenylthanamine] | – | EC50: 0.001 to 0.999 nM
CN(C)[C@@H](C(=O)N1CCC[C@H]1c1ncc(-c2ccc(-c3ccc(-c4cnc([C@@H]5CCCN5C(=O)c5snnc5-c5ccccc5)[nH]4)cc3)cc2)[nH]1)c1ccccc1 [Example 94-10, (1R)-N,N-dimethyl-2-oxo-1-phenyl-2-((2S)-2-(5-(4′-(2-((2S)-1-((4-phenyl-1,2,3-thiadiazol-5-yl)carbonyl)-2-pyrrolidinyl)-1H-imidazol-5-yl)-4-biphenylyl)-1H-imidazol-2-yl)-1-pyrrolidinyl)ethanamine] | 0.001 to 0.999 nM | –
CN(C)[C@@H](C(=O)N1CCC[C@H]1c1ncc(-c2ccc(-c3ccc(-c4cnc([C@@H]5CCCN5C(=O)C5(C)CCN(C(=O)OC(C)(C)C)CC5)[nH]4)cc3)cc2)[nH]1)c1ccccc1 [Example 94-12, tert-butyl 4-(((2S)-2-(5-(4′-(2-((2S)-1-((2R)-2-(dimethylamino)-2-phenylacetyl)-2-pyrrolidinyl)-1H-imidazol-5-yl)-4-biphenylyl)-1H-imidazol-2-yl)-1-pyrrolidinyl)carbonyl)-4-methyl-1-piperidinecarboxylate] | 1 to 99 nM | –
CN(C)[C@@H](C(=O)N1CCC[C@H]1c1ncc(-c2ccc(-c3ccc(-c4cnc([C@@H]5CCCN5C(=O)Cc5cccc(O)c5)[nH]4)cc3)cc2)[nH]1)c1ccccc1 [Example 94-13, 3-(2-((2S)-2-(5-(4′-(2-((2S)-1-((2R)-2-(dimethylamino)-2-phenylacetyl)-2-pyrrolidinyl)-1H-imidazol-5-yl)-4-biphenylyl)-1H-imidazol-2-yl)-1-pyrrolidinyl)-2-oxoethyl)phenol] | 0.001 to 0.999 nM | –
CN(C)[C@@H](C(=O)N1CCC[C@H]1c1ncc(-c2ccc(-c3ccc(-c4cnc([C@@H]5CCCN5C(=O)[C@@H]5CCN(Cc6ccccc6)C5)[nH]4)cc3)cc2)[nH]1)c1ccccc1 [Example 94-17, (1R)-2-((2S)-2-(5-(4′-(2-((2S)-1-(((3R)-1-benzyl-3-pyrrolidinyl)carbonyl)-2-pyrrolidinyl)-1H-imidazol-5-yl)-4-biphenylyl)-1H-imidazol-2-yl)-1-pyrrolidinyl)-N,N-dimethyl-2-oxo-1-phenylethanamine] | 0.001 to 0.999 nM | –
Cc1cc(CC(=O)N2CCC[C@H]2c2ncc(-c3ccc(-c4ccc(-c5cnc([C@@H]6CCCN6C(=O)[C@@H](c6ccccc6)N(C)C)[nH]5)cc4)cc3)[nH]2)n[nH]1 [Example 94-19, (1R)-N,N-dimethyl-2-((2S)-2-(5-(4′-(2-((2S)-1-((5-methyl-1H-pyrazol-3-yl)acetyl)-2-pyrrolidinyl)-1H-imidazol-5-yl)-4-biphenylyl)-1H-imidazol-2-yl)-1-pyrrolidinyl)-2-oxo-1-phenylethanamine] | 0.001 to 0.999 nM | –
CN(C)[C@@H](C(=O)N1CCC[C@H]1c1ncc(-c2ccc(-c3ccc(-c4cnc([C@@H]5CCCN5C(=O)[C@H]5CCCCN5C(=O)OC(C)(C)C)[nH]4)cc3)cc2)[nH]1)c1ccccc1 [Example 94-20, tert-butyl (2R)-2-(((2S)-2-(5-(4′-(2-((2S)-1-((2R)-2-(dimethylamino)-2-phenylacetyl)-2-pyrrolidinyl)-1H-imidazol-5-yl)-4-biphenylyl)-1H-imidazol-2-yl)-1-pyrrolidinyl)carbonyl)-1-piperidinecarboxylate] | 1 to 99 nM | –
COc1ccccc1OCC(=O)N1CCC[C@H]1c1ncc(-c2ccc(-c3ccc(-c4cnc([C@@H]5CCCN5C(=O)[C@@H](c5ccccc5)N(C)C)[nH]4)cc3)cc2)[nH]1 [Example 94-24, (1R)-2-((2S)-2-(5-(4′-(2-((2S)-1-((2-methoxyphenoxy)acetyl)-2-pyrrolidinyl)-1H-imidazol-5-yl)-4-biphenylyl)-1H-imidazol-2-yl)-1-pyrrolidinyl)-N,N-dimethyl-2-oxo-1-phenylethanamine] | 0.001 to 0.999 nM | –
CN(C)[C@@H](C(=O)N1CCC[C@H]1c1ncc(-c2ccc(-c3ccc(-c4cnc([C@@H]5CCCN5C(=O)C5CN(C(=O)OC(C)(C)C)C5)[nH]4)cc3)cc2)[nH]1)c1ccccc1 [Example 94-25, tert-butyl 3-(((2S)-2-(5-(4′-(2-((2S)-1-((2R)-2-(dimethylamino)-2-phenylacetyl)-2-pyrrolidinyl)-1H-imidazol-5-yl)-4-biphenylyl)-1H-imidazol-2-yl)-1-pyrrolidinyl)carbonyl)-1-azetidinecarboxylate] | 0.001 to 0.999 nM | –
CN(C)[C@@H](C(=O)N1CCC[C@H]1c1ncc(-c2ccc(-c3ccc(-c4cnc([C@@H]5CCCN5C(=O)[C@H]5CCN(Cc6ccccc6)C5)[nH]4)cc3)cc2)[nH]1)c1ccccc1 [Example 94-26, (1R)-2-((2S)-2-(5-(4′-(2-((2S)-1-(((3S)-1-benzyl-3-pyrrolidinyl)carbonyl)-2-pyrrolidinyl)-1H-imidazol-5-yl)-4-biphenylyl)-1H-imidazol-2-yl)-1-pyrrolidinyl)-N,N-dimethyl-2-oxo-1-phenylethanamine] | 0.001 to 0.999 nM | –
CN(C)[C@@H](C(=O)N1CCC[C@H]1c1ncc(-c2ccc(-c3ccc(-c4cnc([C@@H]5CCCN5C(=O)c5cccc(N6CCCC6)c5)[nH]4)cc3)cc2)[nH]1)c1ccccc1 [Example 94-27, (1R)-N,N-dimethyl-2-oxo-1-phenyl-2-((2S)-2-(5-(4′-(2-((2S)-1-(3-(1-pyrrolidinyl)benzoyl)-2-pyrrolidinyl)-1H-imidazol-5-yl)-4-biphenylyl)-1H-imidazol-2-yl)-1-pyrrolidinyl)ethanamine] | 1 to 99 nM | –
CN(C)[C@@H](C(=O)N1CCC[C@H]1c1ncc(-c2ccc(-c3ccc(-c4cnc([C@@H]5CCCN5C(=O)C5(C(F)(F)F)CC5)[nH]4)cc3)cc2)[nH]1)c1ccccc1 [Example 94-30, (1R)-N,N-dimethyl-2-oxo-1-phenyl-2-((2S)-2-(5-(4′-(2-((2S)-1-((1-(trifluoromethyl)cyclopropyl)carbonyl)-2-pyrrolidinyl)-1H-imidazol-5-yl)-4-biphenylyl)-1H-imidazol-2-yl)-1-pyrrolidinyl)ethanamine] | 0.001 to 0.999 nM | –

Reference: patent US8574563B2 (Bristol-Myers Squibb Company, priority 2006, dated 2013)
